From the CheMixHub viscosity set
Values joined by “and” are separate entries in the source; they are usually repeats but may differ in a detail not shown here. Equal values may be shown once.

Experiment: xn = mol fraction of the nth substance listed

CCCCOCCO + O
Conditions | viscosity
293.15 K, 101 kPa, x1 = 0.00631 | 1.166 mPa·s
293.15 K, 101 kPa, x1 = 0.0131 | 1.391 mPa·s
293.15 K, 101 kPa, x1 = 0.01666 | 1.507 mPa·s
293.15 K, 101 kPa, x1 = 0.03452 | 2.102 mPa·s
294.15 K, 101 kPa, x1 = 0.00631 | 1.136 mPa·s
294.15 K, 101 kPa, x1 = 0.0131 | 1.352 mPa·s
295.15 K, 101 kPa, x1 = 0.00631 | 1.106 mPa·s
295.15 K, 101 kPa, x1 = 0.0131 | 1.315 mPa·s
295.15 K, 101 kPa, x1 = 0.01666 | 1.421 mPa·s
295.15 K, 101 kPa, x1 = 0.03452 | 1.979 mPa·s
296.15 K, 101 kPa, x1 = 0.00631 | 1.079 mPa·s
296.15 K, 101 kPa, x1 = 0.0131 | 1.279 mPa·s
297.15 K, 101 kPa, x1 = 0.00631 | 1.052 mPa·s
297.15 K, 101 kPa, x1 = 0.0131 | 1.245 mPa·s
297.15 K, 101 kPa, x1 = 0.01666 | 1.342 mPa·s
297.15 K, 101 kPa, x1 = 0.03452 | 1.868 mPa·s
298.15 K, 101 kPa, x1 = 0.00631 | 1.026 mPa·s
298.15 K, 101 kPa, x1 = 0.0131 | 1.212 mPa·s
299.15 K, 101 kPa, x1 = 0.00631 | 1.001 mPa·s
299.15 K, 101 kPa, x1 = 0.0131 | 1.18 mPa·s
299.15 K, 101 kPa, x1 = 0.01666 | 1.271 mPa·s
299.15 K, 101 kPa, x1 = 0.03452 | 1.766 mPa·s
300.15 K, 101 kPa, x1 = 0.00631 | 0.9782 mPa·s
300.15 K, 101 kPa, x1 = 0.0131 | 1.15 mPa·s
301.15 K, 101 kPa, x1 = 0.00631 | 0.9547 mPa·s
301.15 K, 101 kPa, x1 = 0.0131 | 1.121 mPa·s
301.15 K, 101 kPa, x1 = 0.01666 | 1.205 mPa·s
301.15 K, 101 kPa, x1 = 0.03452 | 1.675 mPa·s
302.15 K, 101 kPa, x1 = 0.00631 | 0.9328 mPa·s
302.15 K, 101 kPa, x1 = 0.0131 | 1.092 mPa·s
303.15 K, 101 kPa, x1 = 0.00631 | 0.9113 mPa·s
303.15 K, 101 kPa, x1 = 0.0131 | 1.066 mPa·s
303.15 K, 101 kPa, x1 = 0.01666 | 1.144 mPa·s
303.15 K, 101 kPa, x1 = 0.03452 | 1.592 mPa·s
304.15 K, 101 kPa, x1 = 0.00631 | 0.891 mPa·s
304.15 K, 101 kPa, x1 = 0.0131 | 1.04 mPa·s
305.15 K, 101 kPa, x1 = 0.00631 | 0.8711 mPa·s
305.15 K, 101 kPa, x1 = 0.0131 | 1.015 mPa·s
305.15 K, 101 kPa, x1 = 0.01666 | 1.089 mPa·s
305.15 K, 101 kPa, x1 = 0.03452 | 1.515 mPa·s
306.15 K, 101 kPa, x1 = 0.00631 | 0.8521 mPa·s
306.15 K, 101 kPa, x1 = 0.0131 | 0.9916 mPa·s
307.15 K, 101 kPa, x1 = 0.00631 | 0.8342 mPa·s
307.15 K, 101 kPa, x1 = 0.0131 | 0.9686 mPa·s
307.15 K, 101 kPa, x1 = 0.01666 | 1.038 mPa·s
307.15 K, 101 kPa, x1 = 0.03452 | 1.445 mPa·s
308.15 K, 101 kPa, x1 = 0.00631 | 0.8158 mPa·s
308.15 K, 101 kPa, x1 = 0.0131 | 0.9465 mPa·s
308.15 K, 101 kPa, x1 = 0.037 | 1.465 mPa·s and 1.465 mPa·s
308.15 K, 101.33 kPa, x2 = 0.3047 | 2.388 mPa·s
308.15 K, 101.33 kPa, x2 = 0.4017 | 2.477 mPa·s
308.15 K, 101.33 kPa, x2 = 0.4974 | 2.624 mPa·s
308.15 K, 101.33 kPa, x2 = 0.5973 | 2.835 mPa·s
308.15 K, 101.33 kPa, x2 = 0.697 | 2.955 mPa·s
308.15 K, 101.33 kPa, x2 = 0.8047 | 2.873 mPa·s
308.15 K, 101.33 kPa, x2 = 0.8972 | 2.245 mPa·s
308.15 K, 101.33 kPa, x2 = 0.9497 | 1.576 mPa·s
309.15 K, 101 kPa, x1 = 0.00631 | 0.799 mPa·s
309.15 K, 101 kPa, x1 = 0.0131 | 0.9251 mPa·s
309.15 K, 101 kPa, x1 = 0.01666 | 0.9913 mPa·s
309.15 K, 101 kPa, x1 = 0.03452 | 1.381 mPa·s
310.15 K, 101 kPa, x1 = 0.00631 | 0.7823 mPa·s
310.15 K, 101 kPa, x1 = 0.0131 | 0.9045 mPa·s
311.15 K, 101 kPa, x1 = 0.00631 | 0.7663 mPa·s
311.15 K, 101 kPa, x1 = 0.0131 | 0.8847 mPa·s
311.15 K, 101 kPa, x1 = 0.01666 | 0.9476 mPa·s
311.15 K, 101 kPa, x1 = 0.03452 | 1.322 mPa·s
312.15 K, 101 kPa, x1 = 0.00631 | 0.7507 mPa·s
312.15 K, 101 kPa, x1 = 0.0131 | 0.8657 mPa·s
313.15 K, 101 kPa, x1 = 0.00631 | 0.7357 mPa·s
313.15 K, 101 kPa, x1 = 0.0131 | 0.8474 mPa·s
313.15 K, 101 kPa, x1 = 0.01666 | 0.907 mPa·s
313.15 K, 101 kPa, x1 = 0.03452 | 1.268 mPa·s
313.15 K, 101 kPa, x1 = 0.6 | 2.465 mPa·s
314.15 K, 101 kPa, x1 = 0.00631 | 0.7211 mPa·s
314.15 K, 101 kPa, x1 = 0.0131 | 0.8294 mPa·s
315.15 K, 101 kPa, x1 = 0.00631 | 0.7073 mPa·s
315.15 K, 101 kPa, x1 = 0.0131 | 0.8121 mPa·s
315.15 K, 101 kPa, x1 = 0.01666 | 0.8696 mPa·s
315.15 K, 101 kPa, x1 = 0.03452 | 1.218 mPa·s
316.15 K, 101 kPa, x1 = 0.00631 | 0.6935 mPa·s
316.15 K, 101 kPa, x1 = 0.0131 | 0.7957 mPa·s
317.15 K, 101 kPa, x1 = 0.00631 | 0.6799 mPa·s
317.15 K, 101 kPa, x1 = 0.0131 | 0.7795 mPa·s
317.15 K, 101 kPa, x1 = 0.01666 | 0.8346 mPa·s
317.15 K, 101 kPa, x1 = 0.03452 | 1.173 mPa·s
318.15 K, 101 kPa, x1 = 0.00631 | 0.6676 mPa·s
318.15 K, 101 kPa, x1 = 0.0131 | 0.764 mPa·s
318.15 K, 101 kPa, x1 = 0.03452 | 1.151 mPa·s
319.15 K, 101 kPa, x1 = 0.00631 | 0.6552 mPa·s
319.15 K, 101 kPa, x1 = 0.0131 | 0.7487 mPa·s
319.15 K, 101 kPa, x1 = 0.01666 | 0.8021 mPa·s
319.15 K, 101 kPa, x1 = 0.03452 | 1.131 mPa·s
320.15 K, 101 kPa, x1 = 0.00631 | 0.6431 mPa·s
320.15 K, 101 kPa, x1 = 0.0131 | 0.7347 mPa·s
320.15 K, 101 kPa, x1 = 0.03452 | 1.113 mPa·s
320.65 K, 101 kPa, x1 = 0.03452 | 1.104 mPa·s
321.15 K, 101 kPa, x1 = 0.00631 | 0.6313 mPa·s
321.15 K, 101 kPa, x1 = 0.0131 | 0.7202 mPa·s
321.15 K, 101 kPa, x1 = 0.01666 | 0.7716 mPa·s
321.15 K, 101 kPa, x1 = 0.03452 | 1.096 mPa·s
321.65 K, 101 kPa, x1 = 0.03452 | 1.088 mPa·s
322.15 K, 101 kPa, x1 = 0.00631 | 0.6205 mPa·s
322.15 K, 101 kPa, x1 = 0.0131 | 0.7065 mPa·s
323.15 K, 101 kPa, x1 = 0.00631 | 0.6094 mPa·s
323.15 K, 101 kPa, x1 = 0.0131 | 0.6934 mPa·s
323.15 K, 101 kPa, x1 = 0.01666 | 0.743 mPa·s
